{
  "source": "paper PMC4085509",
  "about": "“Extended treatment of Cushing’s disease with pasireotide: results from a 2-year, Phase II study” (Pituitary, 2013)",
  "key": {"serum cortisol": {"system": "serum cortisol", "assay": "Serum cortisol, ECLIA (Elecsys), pre-morning-dose samples", "assay_type": "in vivo, human", "description": "(§1) Blood samples for serum cortisol, plasma ACTH and pharmacokinetic assessments were collected before the morning pasireotide dose on study visit days. UFC assays were conducted in two central laboratories, one in Europe and the other in the US. Serum cortisol and plasma ACTH assays were assessed centrally by one laboratory (see Supplementary Material for further details).\n(§2) UFC levels were measured with two 24-hour urine specimens collected in the 48 hours prior to core baseline and at study visits during the extension study. Serum cortisol was measured with electrochemiluminescence immunoassay (ECLIA), using the Elecsys® cortisol reagent kit (Roche Diagnostics, Indianapolis, IN, USA), which has a lower limit of quantification (LLOQ) of […] (0.018 μg/dL) and intra- and inter-assay coefficients of variation of 1.2% and 1.4%, respectively. UFC levels were measured with ECLIA, using the Elecsys® cortisol reagent kit with prior dichloromethane extraction to reduce the amount of cortisol metabolites and conjugates."}, "sst5": {"system": "sst5", "design": "method as in PMID 11980628", "settings": "cited from earlier work"}, "plasma ACTH": {"system": "plasma ACTH", "assay": "Plasma ACTH, Immulite 2000 ACTH kit, pre-morning-dose samples", "assay_type": "in vivo, human", "settings": "Day 15, n=18, normal <10", "description": "as §1\n(§3) Plasma ACTH was assayed with the Immulite® 2000 ACTH kit (DPC, Los Angeles, CA, USA), which has a lower limit of detection of 9 pg/mL (1.98 pmol/L) and intra- and inter-assay coefficients of variation of 7.7% and 8.5%, respectively. Pasireotide plasma concentrations were measured using a validated radioimmunoassay with an LLOQ of 150 pg/mL."}, "[1]": {"system": "urinary free cortisol (UFC)", "assay": "24-h urinary free cortisol (UFC), ECLIA after dichloromethane extraction, extension study", "assay_type": "in vivo, human", "description": "(§4) The primary efficacy outcome was the proportion of patients with normalized UFC levels after 6 months of treatment (normal UFC range: 55–276 nmol/24 h; 20–100 μg/24 h). Secondary objectives included assessment of the safety and tolerability of multiple doses of pasireotide and trough plasma concentrations of pasireotide after chronic dosing.\nPatients were classified as ‘UFC responders’ if their mean UFC level at month 6 was in the normal range; as ‘UFC reducers’ if their mean UFC level at month 6 was lower than that at core study baseline but not within normal limits; and as ‘UFC non-reducers’ if their mean UFC level at month 6 was equal to or higher than that at core study baseline or if the mean UFC level at month 6 was missing. Patients who discontinued prior to month 6 were classified as non-responders.\nas §1, §2"}, "[2]": {"system": "patients with Cushing's disease", "assay": "Electrocardiogram intervals", "assay_type": "in vivo, human", "settings": "number of patients", "source_text": "(§5) Patient visits occurred every 2 weeks for the first 3 months and then every 3 months for assessments of UFC, serum cortisol, plasma ACTH, hematology, blood chemistry, HbA1c, electrocardiogram (ECG) and vital signs. Patients were referred to a diabetes specialist for evaluation and appropriate management if any of the following were present: […]"}, "[3]": {"system": "patients with Cushing's disease", "assay": "Adverse events and discontinuations in the extension study", "assay_type": "in vivo, human", "description": "(§6) Safety was assessed by recording all AEs, as well as by regular monitoring of vital signs, physical condition, body weight, hematology and blood chemistry. HbA1c levels were recorded at extension baseline and then every 16 weeks. HbA1c categories were: <upper limit of normal (ULN; normal defined as <5.7 %), between the ULN and 7 %, between 7 and 9 %, and over 9 %."}, "[4]": {"assay": "Trough plasma concentration of pasireotide, radioimmunoassay", "assay_type": "in vivo, human", "settings": "for level at 4320 h: human, read-out: Ctrough, mean ± SD", "description": "as §4, §1, §3"}, "sst3": {"system": "sst3", "design": "method as in PMID 11980628", "settings": "cited from earlier work"}, "sst2": {"system": "sst2", "design": "method as in PMID 11980628", "settings": "cited from earlier work"}, "[5]": {"system": "urinary free cortisol (UFC)", "settings": "15-day core study, 600 μg sc bid, cited from earlier work"}, "sst1": {"system": "sst1", "settings": "cited from earlier work"}, "[6]": {"assay": "HbA1c and fasting plasma glucose monitoring", "assay_type": "in vivo, human", "description": "as §6, §5"}, "[7]": {"settings": "safety population n=19, regardless of study-drug relationship"}, "[8]": {"settings": "at some point during the extension, of six shifted"}, "[9]": {"settings": "of 16 with normal FPG at extension baseline, at some point"}},
  "note": "Where two headings read alike, the source gives them in different places. *1 amine or outer side, *2 acyl side, *3 side chain or, on linkers, in order; H or OH if unused. Where a SMILES comes first, the peptide text is derived from it. Side-chain parts run from the residue outwards. [ ]: non-standard residue; d: D form. The star is where a group is joined. Ethylenediamine = C(CN[*:2])N[*:1]; Hyp = O=C(O)[C@@H]1C[C@@H](O)CN1; Phg = N[C@H](C(=O)O)c1ccccc1; CO = O=C([*:1])[*:2]; Bn = c1ccc(C*)cc1",
  "data": [
    {"compound": "NCCCC[C@@H]1NC(=O)[C@@H](Cc2c[nH]c3ccccc23)NC(=O)[C@H](c2ccccc2)NC(=O)[C@@H]2C[C@@H](OC(=O)NCCN)CN2C(=O)[C@H](Cc2ccccc2)NC(=O)[C@H](Cc2ccc(OCc3ccccc3)cc2)NC1=O", "note": "[pasireotide] (cyclo([Hyp]([CO-Ethylenediamine])[Phg][dW]KY(Bn)F))", "values": [
      {"measurement": "Serum cortisol, mean ± SD", "setting": "serum cortisol; Day 15, n=18, normal 221–690 (09:00 h)", "result": "698 ± 161", "unit": "nmol/L"},
      {"measurement": "Serum cortisol, mean ± SD", "setting": "serum cortisol; Month 6, n=11", "result": "559 ± 300", "unit": "nmol/L"},
      {"measurement": "Affinity for sst5", "setting": "sst5", "result": "highest affinity"},
      {"measurement": "Plasma ACTH, mean ± SD", "setting": "plasma ACTH", "result": "12.4 ± 8.9", "unit": "pmol/L"},
      {"measurement": "UFC, mean ± SD", "setting": "[1]; Day 15, n=17, primary efficacy population, normal 55–276", "result": "522 ± 302", "unit": "nmol/24 h"},
      {"measurement": "Proportion of patients with normal UFC levels (UFC responders)", "setting": "[1]; Month 6, 4 of 18 patients, primary efficacy analysis, 95 % CI 6.4–47.6", "result": 22.2, "unit": "%"},
      {"measurement": "Proportion of patients with reduction in mean UFC but not to within normal range (UFC reducers)", "setting": "[1]; Month 6, 6 of 18 patients", "result": 33.3, "unit": "%"},
      {"measurement": "Proportion of patients with lower UFC than at core baseline", "setting": "[1]; Month 6, 10 of 18 patients", "result": 56, "unit": "%"},
      {"measurement": "UFC, mean ± SD", "setting": "[1]; Month 6, n=11, primary efficacy population", "result": "421 ± 340", "unit": "nmol/24 h"},
      {"measurement": "UFC, mean ± SD", "setting": "[1]; Month 12, n=4, primary efficacy population", "result": "398 ± 220", "unit": "nmol/24 h"},
      {"measurement": "UFC, mean ± SD", "setting": "[1]; Month 24, n=4, primary efficacy population", "result": "514 ± 456", "unit": "nmol/24 h"},
      {"measurement": "Number of patients with >50 % reduction in mean UFC from core baseline", "setting": "[1]; Month 24, of four patients on study drug", "result": "three"},
      {"measurement": "Number of patients with normalized UFC", "setting": "[1]; Month 24, of the four patients who remained on study drug", "result": "one"},
      {"measurement": "Newly occurring QT of 450–480 ms", "setting": "[2]", "result": "One patient"},
      {"measurement": "Newly occurring QTcB of 450–480 ms", "setting": "[2]", "result": "another patient"},
      {"measurement": "QRS interval of >110 ms (not clinically significant)", "setting": "[2]", "result": "one patient"},
      {"measurement": "Hyperglycemia-related AEs, proportion of patients", "setting": "[3]; 13/19, treatment period", "result": 68, "unit": "%"},
      {"measurement": "Deaths during the study", "setting": "[3]; in vivo", "result": "No patients died"},
      {"measurement": "Patients with grade 4 AEs", "setting": "[3]; increased γ-glutamyltransferase, type 2 diabetes mellitus, both suspected drug related", "result": "Two"},
      {"measurement": "Patients with at least one AE during the study", "setting": "[3]; n=19", "result": "All patients"},
      {"measurement": "Patients reporting a hyperglycemia-related adverse event", "setting": "[3]; of 19", "result": "Thirteen"},
      {"measurement": "Discontinuation because of AE (new-onset type 2 diabetes mellitus)", "setting": "[3]; one of 19 patients", "result": 5.3, "unit": "%"},
      {"measurement": "Adverse event: Abdominal pain", "setting": "[3]; [7]", "result": "9 (47.4) n (%)"},
      {"measurement": "Adverse event: Diarrhea", "setting": "[3]; [7]", "result": "13 (68.4) n (%)"},
      {"measurement": "Adverse event: Dizziness", "setting": "[3]; [7]", "result": "5 (26.3) n (%)"},
      {"measurement": "Adverse event: Fatigue", "setting": "[3]; [7]", "result": "5 (26.3) n (%)"},
      {"measurement": "Adverse event: Headache", "setting": "[3]; [7]", "result": "7 (36.8) n (%)"},
      {"measurement": "Adverse event: Hyperglycemia", "setting": "[3]; [7]", "result": "11 (57.9) n (%)"},
      {"measurement": "Adverse event: Injection-site pain", "setting": "[3]; [7]", "result": "6 (31.6) n (%)"},
      {"measurement": "Adverse event: Injection-site pruritus", "setting": "[3]; [7]", "result": "5 (26.3) n (%)"},
      {"measurement": "Adverse event: Nausea", "setting": "[3]; [7]", "result": "12 (63.2) n (%)"},
      {"measurement": "Discontinuation because of unsatisfactory therapeutic effect", "setting": "[3]; three of 19 patients, after 5–10 months", "result": 15.8, "unit": "%"},
      {"measurement": "Discontinuation because of abnormal laboratory value", "setting": "[3]; two of 19 patients: one increased HbA1c and glucose, one elevated UFC", "result": 10.5, "unit": "%"},
      {"measurement": "Ctrough", "setting": "[4]; Month 6, UFC non-reducers, n=1", "result": 0.0052, "unit": "µg/mL"},
      {"measurement": "level at 4320 h", "setting": "[4]; Month 6, UFC reducers, n=6, SD", "result": "0.0191 ± 0.0109", "unit": "µg/mL"},
      {"measurement": "level at 4320 h", "setting": "[4]; Month 6, UFC responders, n=4, LLOQ 150 pg/mL, SD", "result": "0.0174 ± 0.0116", "unit": "µg/mL"},
      {"measurement": "Affinity for sst3", "setting": "sst3", "result": "high affinity"},
      {"measurement": "Affinity for sst2", "setting": "sst2", "result": "high affinity"},
      {"measurement": "Proportion of patients with reduced UFC levels", "setting": "[5]; 22/29 patients", "result": 76, "unit": "%"},
      {"measurement": "Proportion of patients with normalized UFC", "setting": "[5]; five patients", "result": 17, "unit": "%"},
      {"measurement": "Affinity for sst1", "setting": "sst1", "result": "high affinity"},
      {"measurement": "Patients with HbA1c shifted to a higher category with levels <7%", "setting": "[6]; [8]", "result": "three"},
      {"measurement": "Patients with HbA1c shifted to between 7% and 9%", "setting": "[6]; [8]", "result": "three"},
      {"measurement": "Patients with post-baseline HbA1c shifted to a higher category", "setting": "[6]; at some point during the extension, eight with baseline values", "result": "Six"},
      {"measurement": "Shifts to levels of HbA1c >9%", "setting": "[6]; during the extension", "result": "no shifts"},
      {"measurement": "Patients with an increase in fasting plasma glucose level at some point during the extension", "setting": "[6]; in vivo", "result": "All patients"},
      {"measurement": "Patients with improved FPG levels at their last assessment", "setting": "[6]; in vivo", "result": "All patients"},
      {"measurement": "Patients whose FPG shifted to between 100 and <126 mg/dL (5.6 to <7.0 mmol/L)", "setting": "[6]; [9]", "result": "six"},
      {"measurement": "Patients whose FPG shifted to between 126 and <200 mg/dL (7.0 to <11.1 mmol/L)", "setting": "[6]; [9]", "result": "four"},
      {"measurement": "Patients whose FPG shifted to ≥200 mg/dL (≥11.1 mmol/L)", "setting": "[6]; [9]", "result": "six"},
      {"measurement": "Patients with HbA1c shifted to >ULN but <7% at last assessment", "setting": "[6]; of five remaining higher", "result": "four"},
      {"measurement": "Patients with HbA1c shifted to between 7% and 9% at last assessment", "setting": "[6]; of five remaining higher", "result": "one"},
      {"measurement": "Patients remaining at a higher post-baseline HbA1c level at last assessment", "setting": "[6]; of the six shifted", "result": "Five"}
    ]}
  ]
}
